Test: MTT cytotoxicity assay on HepG2 cells
Format: cell-based, Human
Conditions: human, HepG2 cells, MTT, 24 h; three dose response titrations (200 - 1 µM)
Protocol: Compound cytotoxicity on Human Hepatocyte Carcinoma (HepG2) cells (85011430, Sigma Aldrich) was elucidated by the MTT (3-(4,5-dimethylthiazol-2-yl)-2,5-diphenyltetrazolium bromide) tetrazolium reduction assay as previously described, [28], [50]. Briefly, HepG2 cells were seeded at a density of 20,000 per well in 96-well black, clear bottom falcon plate in modified BME medium (50 μl; containing 1% antibiotic/mycotic (Sigma-Aldrich, Gillingham, UK), 1% 200 mM L-glutammine (Gibco, Paisley, UK), 1% MEM non-essential amino acid solution (Gibco, Paisley, UK), and 10% fetal bovine serum (Gibco, Paisley, UK)). HepG2 plates seeded for cytotoxicity screens were treated with compounds 24 h post-seeding. Each compound was tested at 200, 100, 75, 50, 20, 10 and 1 µM; each concentration was assayed in triplicate. Blank wells (no cells), as well as positive (1% v/v Triton X-100, X100, Sigma-Aldrich) and negative (1.25% v/v DMSO or media only) controls, were included in each plate. After addition of compounds, each plate was then incubated for a further 20 h before application of MTT reagent for assessment of compound cytotoxicity (4 h incubation with MTT for a total 24 h cell-drug incubation). The absorbance reading at 570 nm was measured with a POLARstar Omega (BMG Labtech, UK) microtiter plate reader. Dose response curves were generated in GraphPad Prism 7.02 based on the corrected average absorbance of the three replicates for each concentration point.

With `c1ccc(Nc2nc(N3CCCC3)nc(N3CCNCC3)n2)cc1` [Compound 7] as the compound, how does the CC50 at 24 h read?
The CC50 at 24 h was 13.7 µM.
